According to patent publication US8778963B2, “Hydroxylamine and oxime substituted imidazoquinolines, imidazopyridines, and imidazonaphthyridines” (3M Innovative Properties Company, priority 2003, dated 2014):
Where a name gives a salt, the structure may show the parent alone.

First: CCCc1nc2c(N)nc3ccccc3c2n1CCCC(C)N(OC)C(=O)NCC (stereo not shown) [Example 12, 1-[4-(4-Amino-2-propyl-1H-imidazo[4,5-c]quinolin-1-yl)-1-methylbutyl]-3-ethyl-1-methoxyurea]
Second: CCCc1nc2c(N)nc3ccccc3c2n1CCCC(C)N(OC)C(C)=O (stereo not shown) [Example 10, N-[4-(4-Amino-2-propyl-1H-imidazo[4,5-c]quinolin-1-yl)-1-methylbutyl]-N-methoxy-acetamide]
The melting point of the first is higher: 193 to 194 °C for the first, 140 to 142 °C for the second.

First: CCCc1nc2c(N)nc3ccccc3c2n1CCCCN(OC)C(=O)Nc1ccccc1 [Example 9]
Second: CCCc1nc2c(N)nc3cccnc3c2n1CCCCN(OC)C(=O)Nc1ccccc1 [Example 19, N-[4-(4-Amino-2-propyl-1H-imidazo[4,5-c][1,5]naphthyridin-1-yl)butyl]-N-methoxy-N′-phenylurea]
The melting point of the first is higher: 164 to 166 °C for the first, 155 to 156 °C for the second.

First: CCCCc1nc2c(N)nc3ccccc3c2n1CCCC(=NO)c1ccccc1 [Example 28, 4-(4-Amino-2-butyl-1H-imidazo[4,5-c]quinolin-1-yl)-1-phenylbutan-1-one oxime]
Second: CCCCc1nc2c(N)nc3ccccc3c2n1CCC/C=N/OC [Example 42, (1E,Z)-4-(4-amino-2-butyl-1H-imidazo[4,5-c]quinolin-1-yl)butanal O-methyloxime]
The melting point of the first is higher: 242 to 244 °C for the first, 153 to 155 °C for the second.

Compared with `CCCc1nc2c(N)nc(C)c(C)c2n1CCCCN(O)C(=O)NC(C)C` [Example 23, 1-[4-(4-Amino-6,7-dimethyl-2-propyl-1H-imidazo[4,5-c]pyridin-1-yl)butyl]-1-hydroxy-3-isopropylurea], `CCCc1nc2c(N)nc(C)c(C)c2n1CCCCN(O)C(=O)c1ccccc1` [Example 25, N-Hydroxy-N-[4-(4-amino-6,7-dimethyl-2-propyl-1H-imidazo[4,5-c]pyridin-1-yl)-butyl]benzamide] is lower in melting point: 138.5 to 140 °C for the first, 132 to 134 °C for the second.

First: CCCc1nc2c(N)nc3cccnc3c2n1CCCCN(OC)C(=O)c1ccccc1 [Example 2, N-[4-(4-Amino-2-propyl-1H-imidazo[4,5-c][1,5]naphthyridin-1-yl)butyl]-N-methoxybenzamide]
Second: CCCc1nc2c(N)nc3cc(-c4ccccc4)ccc3c2n1CCCC(C)=NOC [Example 17, 5-(4-Amino-7-phenyl-2-propyl-1H-imidazo[4,5-c]quinolin-1-yl)pentan-2-one O-methyloxime]
The melting point of the first is lower: 125 to 127 °C for the first, 191 to 192 °C for the second.

First: CCOCc1nc2c(N)nc3ccccc3c2n1CCCC(C)N(OC)S(C)(=O)=O (stereo not shown) [Example 13, N-[4-(4-Amino-2-ethoxymethyl-1H-imidazo[4,5-c]quinolin-1-yl)-1-methylbutyl]-N-methoxymethanesulfonamide]
Second: CCOCc1nc2c(N)nc3ccccc3c2n1CCCC(C)=NOC (as salt: hydrochloride) [Example 35, 5-(4-Amino-2-ethoxymethyl-1H-imidazo[4,5-c]quinolin-1-yl)pentan-2-one O-methyloxime hydrochloride]
The melting point of the first is lower: 146 to 148 °C for the first, 189 to 192 °C for the second.

First: CC(CCCn1c(C)nc2c(N)nc3ccccc3c21)=NOCc1ccccc1 [Example 31, 5-(4-Amino-2-methyl-1H-imidazo[4,5-c]quinolin-1-yl)pentan-2-one O-benzyloxime]
Second: CCOCc1nc2c(N)nc3ccccc3c2n1CCCC(C)=NO [Example 34, 5-(4-Amino-2-ethoxymethyl-1H-imidazo[4,5-c]quinolin-1-yl)pentan-2-one oxime]
The melting point of the first is lower: 146 to 148 °C for the first, 220 to 223 °C for the second.

First: CON=C(C)CC(C)(C)Cn1c(C)nc2c(N)nc3ccccc3c21 [Example 39, 5-(4-Amino-2-methyl-1H-imidazo[4,5-c]quinolin-1-yl)-4,4-dimethylpentan-2-one O-methyl-oxime]
Second: CCOCc1nc2c(N)nc3ccccc3c2n1C/C(CC)=N/OC [Example 48, 1-[4-Amino-2-(ethoxymethyl)-1H-imidazo[4,5-c]quinolin-1-yl]butan-2-one O-methyloxime]
The melting point of the first is higher: 193 to 195 °C for the first, 175 to 178 °C for the second.
